Legend:
[1] = Subacute toxicity studies (3 weeks); assay type: in vivo, mice, rats and rabbits
Method: (§1) Pharmacological examination of the compound C-857 was carried out in mice, rats and rabbits. The acute, subacute, and long-term toxicity were studied in rats and rabbits (orally and intraperitoneally) and in mice (intraperitoneally). […] In the subacute toxicity studies (3 weeks) 1/60 and 1/120 of LD50 were considered; in the long-term toxicity evaluations (3 months) - 1/200 and 1/400 of LD50.
About 15-40 % of total number of mice died after a dose of 1/120 of LD50. The increase in the number of leucocytes (particularly in rabbits) and decrease in relative number of lymphocytes were observed. However, no changes in the number of red cells were found. […] The preparation C-857 induced some drop of the urine level in rabbits.

[2] = Long-term toxicity evaluations (3 months); assay type: in vivo, mice, rats and rabbits
Method: as §1
The preparation C-857 was found not to change the spleen-liver index.
No changes of urea and creatinine content were found.

Acute toxicity in rats = conditions: rat, in vivo, iv, intravenously
Crocker sarcoma (Sa-180) = assay: Growth inhibition of Crocker sarcoma (Sa-180) in mice; assay type: in vivo; conditions: intraperitoneally, tumor weight vs control
Method: The growth inhibition of Crocker sarcoma (Sa-180) in mice.
For these experiments three-months old mice of about 25 g in weight were used. Each was inoculated with mouse sarcoma (Sa-180) and then they were divided into groups: a group of 10 control mice, and two to four test groups of 7 mice each.
The compounds to be investigated were administered intraperitoneally in appropriate doses after previous determination of maximum tolerance dose.
The percent difference between the mean weight of tumors isolated from control and test mice was accepted as a criterion for the evaluation of antineoplastic activity of the compounds, taking into account the toxic effects.
After doses of between 0.2-0.8 mg/kg the percent of inhibition was 44-86% respectively. Similarly, for the preparation allocated the code number C-934, i.e. 1-nitro-9-(hydroxybutylamino)acridine hydrochloride, after doses of between 0.2-0.4 mg/kg percent of inhibition was 45-60 % respectively.

[3] = test system: cells forming colonies in marrow; parameters: species or system mice; conditions: mouse, in vivo
Description: The effect of action of compound C-857 is similar to that of Bleomicine which is non-toxic for marrow.

[4] = Immunosuppressive action (contact allergy, local transplant-host reaction, post adjuvant multiarticular inflammation tests); assay type: in vivo; conditions: appears only after the total dose corresponding to 1/5 of LD50
Description: (§2) In a dose corresponding to 1/2 of LD50 it inhibits the spontaneous mobility and shortens hexobarbital anaesthesia. […] Its immunosuppresive action measured in contact allergy tests, local transplant-host reaction tests and post adjuvant multiarticular inflammation is minimal and appears only after the total dose corresponding to 1/5 of LD50.

[5] = Vomiting effect in pigeons; assay type: in vivo
[6] = General pharmacological examination (circulatory, spasmolytic, central nervous system); assay type: in vivo, mice, rats and rabbits
Method: as §1, §2

[7] = Acute toxicity in rabbits; conditions: rabbit, in vivo, route not given
Method: as §1

Acute toxicity in mice = assay type: in vivo; conditions: intraperitoneally
Description: The acute, subacute, and long-term toxicity were studied in rats and rabbits (orally and intraperitoneally) and in mice (intraperitoneally).

[8] = dose corresponding to 1/2 of LD50
[9] = intravenously, doses increasing to 20 mg/kg

Cl.O=[N+]([O-])c1cccc2nc3ccccc3c(NCCO)c12 [Example C-857, 1-nitro-9-(2-hydroxyethylamino)-acridine hydrochloride]
effects observed in the subacute toxicity investigations ([1]; 3 weeks, 1/60 and 1/120 of LD50): moult, dyspndea, lack of thirst, diarrhoea, and loss of body weight
total number of mice died ([1]; mice, dose of 1/120 of LD50, subacute): 15-40%
urine level ([1]; rabbits, subacute): some drop
Liver and kidney function tests ([1]; subacute): no pathological abnormalities
histologic studies, findings ([1]; subacute): nectrotic inflammation of the liver capsule and peritoneum of intestine wall
histologic studies, interneal organs (liver, kidney, thymus gland) ([1]; subacute): No pathological abnormalities
number of red cells ([1]; subacute): no changes
relative number of lymphocytes ([1]; subacute): decrease
number of leucocytes ([1]; subacute, particularly in rabbits): increase
general changes in long-term toxicity observation ([2]; 3 months, 1/200 and 1/400 of LD50): decrease in physical activity, lack of thirst or occasional diarrhoea
local action ([2]; administrated intraperitoneally): locally irritating action
leucocytes (hematologic studies) ([2]; in rabbits and rats): leucocytosis
relative content of eosinophis ([2]; in rabbits and rats): decrease
value of hematocrit ([2]; in rabbits, hematologic studies): decrease
activity of AspAT and ALAT enzymes ([2]; in vivo): no changes
activity of alkaline phosphatase ([2]; in vivo): Slight changes
urea and creatinine content ([2]; in vivo): No changes
changes in liver and kidneys ([2]; long-term): Insignificant changes
changes in thymus gland and intestine ([2]; long-term): no changes
spleen-liver index ([2]; long-term): not to change
LD50 (Acute toxicity in rats): 9.2 mg/kg
percent of inhibition (Crocker sarcoma (Sa-180); doses of between 0.2-0.8 mg/kg): 44-86%
myclo- toxic effect on cells forming colonies in marrow [3]: not to produce myclo- toxic effect
immunosuppresive action [4]: minimal
vomiting effect [5]: did not exert vomiting effect
hexobarbital anaesthesia [6, 8]: shortens
spontaneous mobility [6, 8]: inhibits
analgestic or anti-conclusive activity ([6]; in vivo): does not show any
effect on central nervous system ([6]; in vivo): weak and irregular
effect on the circulatory system [6, 9]: did not exert any significant effect
spasmolytic action [6, 9]: weak
LD50 [7]: 11.4 mg/kg
maximal tolerated dose, LD10 (Acute toxicity in mice): 2.5 mg/kg
LD50 (Acute toxicity in mice; mouse, in vivo, ip): 10.6 mg/kg

Cl.O=[N+]([O-])c1cccc2nc3ccccc3c(NCCCCO)c12 [Example C-934, 1-nitro-9(4-hydroxybutylamino)acridine hydrochloride]
percent of inhibition (Crocker sarcoma (Sa-180); doses of between 0.2-0.4 mg/kg): 45-60%
